Assay results reported in patent publication US20180125842A1, “Ergoloid for Cancer” (priority 2016, published 2018).

System: splenic lymphoma
Assay: Clinical use in splenic lymphoma
Format: in vivo, human
Conditions: before addition of Ergoloid

**Q.** How did the “disease course on Rituxan alone” value turn out when Rituxan: an immunotherapy was run?
**A.** The value was “gradually allowing progression”.
